# Data: patent publication US10821115B2, “Compounds that inhibit Mcl-1 protein” (priority 2017, dated 2020)
# pIC50: −log10 of the molar value. Read-outs that look alike come from different tables or passages of the source.
# Test system: human multiple myeloma cell line, OPM-2
# Assay: Cell viability assay (OPM-2 10 FBS), CellTiter-Glo
# Assay type: cell-based
# Description: Cell viability assay (OPM-2 10 FBS)
# The human multiple myeloma cell line, OPM-2, was cultured in complete growth medium containing RPMI 1640 and 10% fetal bovine serum (FBS). Cells were seeded into 384-well plates at 3000 cells/well density in complete growth medium containing 10% FBS, and incubated for 16 h with serially diluted test compounds in a 37° C. incubator with 5% CO2. Cell viability was tested using CellTiter-Glo® assay (Promega, Madison, Wis.) according to the manufacturer recommendations. Luminescence was determined using an EnVision® Multilabel plate reader 25 min after the addition of detection reagent. IC50 values were then calculated with Xlfit using a logistical 4-parameter fit model in GraphPad Prism (GraphPad Software, San Diego, Calif.) or in Genedata Screener® (Genedata, Basel, Switzerland).
# [1] = read-out: OPM-2 10% FBS IC50 IP, OPM-2 cells, 10% FBS, 16 h incubation
# [2] = Homo sapiens, OPM-2, 16 h, read-out: OPM-2 10% FBS IC50 IP, OPM-2 cells, 10% FBS, 16 h incubation
# [3] = read-out: OPM-2 10% FBS IC50 IP, OPM-2 cells, 10% FBS, 16 h, CellTiter-Glo
# [4] = Homo sapiens, OPM-2, 16 h, read-out: OPM-2 10% FBS IC50 IP, OPM-2 cells, 10% FBS, 16 h, CellTiter-Glo
smiles,measurement,setting,value
"C[C@@H]1[C@@H](C)C/C=C/[C@@](O)(CN2CCN3CCOC[C@@H]3C2)[C@@H]2CC[C@H]2CN2C[C@@]3(CCCc4cc(Cl)ccc43)COc3ccc(cc32)C(=O)NS1(=O)=O [Example 193, (1S,3′R,6′R,7′S,8′E,11′S,12′R)-6-chloro-7′-((9aS)-hexahydropyrazino[2,1-c][1,4]oxazin-8(1H)-ylmethyl)-7′-hydroxy-11′,12′-dimethyl-3,4-dihydro-2H, 15′H-spiro[naphthalene-1,22′-[20]oxa[13]thia[1,14]diazatetracyclo[14.7.2.0-3,6˜.0˜19,24˜]pentacosa[8,16,18,24]tetraen]-15′-one 13′,13′-dioxide]",pIC50,[1],7.64
CO[C@]1(CN2CCN3CCS(=O)(=O)C[C@@H]3C2)/C=C/C[C@H](C)[C@@H](C)S(=O)(=O)NC(=O)c2ccc3c(c2)N(C[C@@H]2CC[C@H]21)C[C@@]1(CCCc2cc(Cl)ccc21)CO3 [Example 215],pIC50,[1],6.97
"CO[C@]1(CN2CCN(CC(F)(F)F)CC2)/C=C/C[C@H](C)[C@@H](C)S(=O)(=O)NC(=O)c2ccc3c(c2)N(C[C@@H]2CC[C@H]21)C[C@@]1(CCCc2cc(Cl)ccc21)CO3 [Example 93, (1S,3′R,6′R,7′R,8′E,11′S,12′R)-6-chloro-7′-methoxy-11′,12′-dimethyl-7′-((4-(2,2,2-trifluoroethyl)-1-piperazinyl)methyl)-3,4-dihydro-2H,15′H-spiro[naphthalene-1,22′-[20]oxa[13]thia[1,14]diazatetracyclo [14.7.2.0~3,6~.0~19,24~]pentacosa[8,16,18,24]tetraen]-15′-one 13′,13′-dioxide]",pIC50,[2],6.03
"CO[C@@]1(CN2CCN(CC(=O)O)CC2)/C=C/C[C@H](C)[C@@H](C)S(=O)(=O)NC(=O)c2ccc3c(c2)N(C[C@@H]2CC[C@H]21)C[C@@]1(CCCc2cc(Cl)ccc21)CO3 [Example 270, (4-(((1S,3′R,6′R,7′S,8′E,11′S,12′R)-6-CHLORO-7′-METHOXY-11′,12′-DIMETHYL-13′,13′-DIOXIDO-15′-OXO-3,4-DIHYDRO-2H-SPIRO[NAPHTHALENE-1,22′-[20]OXA[13]THIA[1,14]DIAZATETRACYCLO[14.7.2.0-3,6˜.0˜19,24˜]PENT ACOSA[8,16,18,24]TETRAEN]-7′-YL)METHYL)-1-PIPERAZINYL)ACETIC ACID]",pIC50,[2],5.31
"CO[C@]1(c2cccnc2F)/C=C/C[C@H](C)[C@@H](C)S(=O)(=O)NC(=O)c2ccc3c(c2)N(C[C@@H]2CC[C@H]21)C[C@@]1(CCCc2cc(Cl)ccc21)CO3 [Example 100324, (1S,3′R,6′R,7′R,8′E,11′S,12′R)-6-chloro-7′-(2-fluoro-3-pyridinyl)-7′-methoxy-11′,12′-dimethyl-3,4-dihydro-2H,15′H-spiro[naphthalene-1,22′-[20]oxa[13]thia[1,14]diazatetracyclo [14.7.2.0~3,6~.0~19,24~]pentacosa[8,16,18,24]tetraen]-15′-one 13′,13′-dioxide]",pIC50,[3],5.93
"CCO[C@@]1(CN2CCN(C3(C)COC3)CC2)/C=C/C[C@H](C)[C@@H](C)S(=O)(=O)NC(=O)c2ccc3c(c2)N(C[C@@H]2CC[C@H]21)C[C@@]1(CCCc2cc(Cl)ccc21)CO3 [Example 311, (1S,3′R,6′R,7′S,8′E,11′S,12′R)-6-chloro-7′-ethoxy-11′,12′-dimethyl-7′-((4-(3-methyl-3-oxetanyl)-1-piperazinyl)methyl)-3,4-dihydro-2H,15′H-spiro[naphthalene-1,22′-[20]oxa[13]thia[1,14]diazatetracyclo [14.7.2.0~3,6~.0~19,24~]pentacosa[8,16,18,24]tetraen]-15′-one 13′,13′-dioxide]",pIC50,[2],6.44
"C[C@@H]1[C@@H](C)C/C=C/[C@@](O)(C#C[Si](C)(C)C)[C@@H]2CC[C@H]2CN2C[C@@]3(CCCc4cc(Cl)ccc43)COc3ccc(cc32)C(=O)NS1(=O)=O [Example 100240, (1S,3′R,6′R,7′S,8′E,11′S,12′R)-6-chloro-7′-hydroxy-11′,12′-dimethyl-7′-((trimethylsilyl)ethynyl)-3,4-dihydro-2H,15′H-spiro[naphthalene-1,22′-[20]oxa[13]thia[1,14]diazatetracyclo [14.7.2.0~3,6~.0~19,24~]pentacosa[8,16,18,24]tetraen]-15′-one 13′,13′-dioxide]",pIC50,[3],6.58
"CCO[C@]1(CN2CCN(C(C)(C)C)CC2)/C=C/C[C@H](C)[C@@H](C)S(=O)(=O)NC(=O)c2ccc3c(c2)N(C[C@@H]2CC[C@H]21)C[C@@]1(CCCc2cc(Cl)ccc21)CO3 [Example 6, (1S,3′R,6′R,7′R,8′E,11′S,12′R)-7′-((4-TERT-BUTYL-1-PIPERAZINYL)METHYL)-6-CHLORO-7′-ETHOXY-11′,12′-DIMETHYL-3,4-DIHYDRO-2H,15′H-SPIRO[NAPHTHALENE-1,22′-[20]OXA[13]THIA[1,14]DIAZATETRACYCLO[14.7.2.0-3,6˜.0˜19,24˜]PENT ACOSA[8,16,18,24]TETRAEN]-15′-ONE 13′,13′-DIOXIDE]",pIC50,[2],7.12
"CO[C@@]1(CN2CCN3CCN(C(C)=O)C[C@@H]3C2)/C=C/C[C@H](C)[C@@H](C)S(=O)(=O)NC(=O)c2ccc3c(c2)N(C[C@@H]2CC[C@H]21)C[C@@]1(CCCc2cc(Cl)ccc21)CO3 (single isomer, unassigned) [Example 226]",pIC50,[1],7.31
"CCO[C@]1(CN2CCN(C(COC)COC)CC2)/C=C/C[C@H](C)[C@@H](C)S(=O)(=O)NC(=O)c2ccc3c(c2)N(C[C@@H]2CC[C@H]21)C[C@@]1(CCCc2cc(Cl)ccc21)CO3 [Example 116, (1S,3′R,6′R,7′R,8′E,11′S,12′R)-6-chloro-7′-ethoxy-7′-((4-(2-methoxy-1-(methoxymethyl)ethyl)-1-piperazinyl)methyl)-11′,12′-dimethyl-3,4-dihydro-2H,15′H-spiro[naphthalene-1,22′-[20]oxa[13]thia[1,14]diazatetracyclo [14.7.2.0~3,6~.0~19,24~]pentacosa[8,16,18,24]tetraen]-15′-one 13′,13′-dioxide]",pIC50,[2],6.41
"CC(C)N(CCO)C[C@]1(O)/C=C/C[C@H](C)[C@@H](C)S(=O)(=O)NC(=O)c2ccc3c(c2)N(C[C@@H]2CC[C@H]21)C[C@@]1(CCCc2cc(Cl)ccc21)CO3 [Example 126, (1 S,3′R,6′R,7′S,8′E,11′S,12′R)-6-chloro-7′-hydroxy-7′-(((2-hydroxyethyl)(1-methylethyl)amino)methyl)-11′,12′-dimethyl-3,4-dihydro-2H, 15′H-spiro[naphthalene-1,22′-[20]oxa[13]thia[1,14]diazatetracyclo[14.7.2.0-3,6˜.0˜19,24˜]pentacosa[8,16,18,24]tetraen]-15′-one 13′,13′-dioxide]",pIC50,[2],6.05
"COC(=O)CNC(=O)C[C@]1(OC)/C=C/C[C@H](C)[C@@H](C)S(=O)(=O)NC(=O)c2ccc3c(c2)N(C[C@@H]2CC[C@H]21)C[C@@]1(CCCc2cc(Cl)ccc21)CO3 [Example 100550, methyl N-(((1S,3′R,6′R,7′S,8′E,11′S,12′R)-6-chloro-7′-methoxy-11′,12′-dimethyl-13′,13′-dioxido-15′-oxo-3,4-dihydro-2H-spiro[naphthalene-1,22′-[20]oxa[13]thia[1,14]diazatetracyclo [14.7.2.0~3,6~.0~19,24~]pentacosa[8,16,18,24]tetraen]-7′-yl)acetyl)glycinate]",pIC50,[4],5.16
"CO[C@]1(c2cccc(F)n2)/C=C/C[C@H](C)[C@@H](C)S(=O)(=O)NC(=O)c2ccc3c(c2)N(C[C@@H]2CC[C@H]21)C[C@@]1(CCCc2cc(Cl)ccc21)CO3 [Example 100340, (1S,3′R,6′R,7′R,8′E,11′S,12′R)-6-chloro-7′-(6-fluoro-2-pyridinyl)-7′-methoxy-11′,12′-dimethyl-3,4-dihydro-2H,15′H-spiro[naphthalene-1,22′-[20]oxa[13]thia[1,14]diazatetracyclo [14.7.2.0~3,6~.0~19,24~]pentacosa[8,16,18,24]tetraen]-15′-one 13′,13′-dioxide]",pIC50,[4],6.51
"CO[C@@]1(CN2CCN(CC(CO)CO)CC2)/C=C/C[C@H](C)[C@@H](C)S(=O)(=O)NC(=O)c2ccc3c(c2)N(C[C@@H]2CC[C@H]21)C[C@@]1(CCCc2cc(Cl)ccc21)CO3 [Example 310, (1S,3′R,6′R,7′S,8′E,11′S,12′R)-6-chloro-7′-((4-(3-hydroxy-2-(hydroxymethyl)propyl)-1-piperazinyl)methyl)-7′-methoxy-11′,12′-dimethyl-3,4-dihydro-2H,15′H-spiro[naphthalene-1,22′-[20]oxa[13]thia[1,14]diazatetracyclo [14.7.2.0~3,6~.0~19,24~]pentacosa[8,16,18,24]tetraen]-15′-one 13′,13′-dioxide]",pIC50,[2],6.29
"CO[C@@]1(CC(=O)N(C)C2CC2)/C=C/C[C@H](C)[C@@H](C)S(=O)(=O)NC(=O)c2ccc3c(c2)N(C[C@@H]2CC[C@H]21)C[C@@]1(CCCc2cc(Cl)ccc21)CO3 [Example 100374, 2-((1S,3′R,6′R,7′S,8′E,11′S,12′R)-6-chloro-7′-methoxy-11′,12′-dimethyl-13′,13′-dioxido-15′-oxo-3,4-dihydro-2H-spiro[naphthalene-1,22′-[20]oxa[13]thia[1,14]diazatetracyclo [14.7.2.0~3,6~.0~19,24~]pentacosa[8,16,18,24]tetraen]-7′-yl)-N-cyclopropyl-N-methylacetamide]",pIC50,[4],6.36
